According to the supplement of paper PMC10307832:

What was measured:
Assay in all cases: relative viability (nuclei count vs DMSO), 5 days (fraction); higher = more cells survive
[1] = tested on: NCI-H2085
Method in brief: (§1)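 Dosing by pin tool came one day after lung cancer cell lines were seeded in 1536-well plates, using either one drug or a fixed anchor-drug dose plus five library-drug doses (not always all listed) in √10 steps. After 5 days, nuclei were counted on 4× images. Relative viability is treated-well nuclei count divided by vehicle-well nuclei count, and values are medians of duplicate plates.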

[2] = tested on: NCI-H2023
Method in brief: as §1

[3] = tested on: COR-L23
Method in brief: as §1

[4] = tested on: NCI-H1651
Method in brief: as §1

[5] = tested on: NCI-H520
Method in brief: as §1

[6] = tested on: HCC-827
Method in brief: as §1

[7] = tested on: EPLC-272H
Method in brief: as §1

[8] = tested on: NCI-H1563
Method in brief: as §1

[9] = tested on: LU99A
Method in brief: as §1

[10] = tested on: NCI-H2087
Method in brief: as §1

[11] = tested on: H3255
Method in brief: as §1

[12] = tested on: NCI-H2405
Method in brief: as §1

[13] = tested on: NCI-H838
Method in brief: as §1

[14] = tested on: NCI-H1395
Method in brief: as §1

[15] = tested on: SK-MES-1
Method in brief: as §1

[16] = tested on: HCC-44
Method in brief: as §1

[17] = tested on: NCI-H1944
Method in brief: as §1

[18] = tested on: NCI-H650
Method in brief: as §1

[19] = tested on: EMC-BAC-2
Method in brief: as §1

[20] = tested on: NCI-H1793
Method in brief: as §1

CCN(CC)CCCCNc1ncc2cc(-c3cc(OC)cc(OC)c3)c(NC(=O)NC(C)(C)C)nc2n1 + CS(=O)(=O)CCNCc1ccc(-c2ccc3ncnc(Nc4ccc(OCc5cccc(F)c5)c(Cl)c4)c3c2)o1 [Lapatinib] (partner 2 µM)
relative viability ([1]; first compound 0.01 µM): 0.791
relative viability ([1]; first compound 0.03162 µM): 0.691
relative viability ([1]; first compound 0.1 µM): 0.828
relative viability ([1]; first compound 0.3162 µM): 0.85
relative viability ([1]; first compound 1 µM): 0.68
relative viability ([2]; first compound 0.01 µM): 0.748
relative viability ([2]; first compound 0.03162 µM): 0.94
relative viability ([2]; first compound 0.1 µM): 1.17
relative viability ([2]; first compound 0.3162 µM): 0.919
relative viability ([2]; first compound 1 µM): 0.798
relative viability ([3]; first compound 0.01 µM): 1.09
relative viability ([3]; first compound 0.03162 µM): 0.973
relative viability ([3]; first compound 0.1 µM): 0.943
relative viability ([3]; first compound 0.3162 µM): 1.19
relative viability ([3]; first compound 1 µM): 0.881
relative viability ([4]; first compound 0.01 µM): 0.896
relative viability ([4]; first compound 0.03162 µM): 1.03
relative viability ([4]; first compound 0.1 µM): 1.18
relative viability ([4]; first compound 0.3162 µM): 0.844
relative viability ([4]; first compound 1 µM): 0.554
relative viability ([5]; first compound 0.01 µM): 1.07
relative viability ([5]; first compound 0.03162 µM): 0.946
relative viability ([5]; first compound 0.1 µM): 1.11
relative viability ([5]; first compound 0.3162 µM): 0.792
relative viability ([5]; first compound 1 µM): 0.308
relative viability ([6]; first compound 0.01 µM): 0.214
relative viability ([6]; first compound 0.03162 µM): 0.206
relative viability ([6]; first compound 0.1 µM): 0.177
relative viability ([6]; first compound 0.3162 µM): 0.177
relative viability ([6]; first compound 1 µM): 0.172
relative viability ([7]; first compound 0.01 µM): 1.05
relative viability ([7]; first compound 0.1 µM): 0.956
relative viability ([7]; first compound 0.3162 µM): 0.922
relative viability ([7]; first compound 1 µM): 0.642
relative viability ([8]; first compound 0.01 µM): 0.884
relative viability ([8]; first compound 0.03162 µM): 0.895
relative viability ([8]; first compound 0.1 µM): 0.849
relative viability ([8]; first compound 0.3162 µM): 0.792
relative viability ([8]; first compound 1 µM): 0.621
relative viability ([9]; first compound 0.01 µM): 0.946
relative viability ([9]; first compound 0.03162 µM): 0.924
relative viability ([9]; first compound 0.1 µM): 1.17
relative viability ([9]; first compound 0.3162 µM): 1.14
relative viability ([9]; first compound 1 µM): 0.93
relative viability ([10]; first compound 0.01 µM): 1.15
relative viability ([10]; first compound 0.03162 µM): 0.99
relative viability ([10]; first compound 0.1 µM): 1.23
relative viability ([10]; first compound 0.3162 µM): 1.06
relative viability ([10]; first compound 1 µM): 1.07
relative viability ([11]; first compound 0.01 µM): 0.26
relative viability ([11]; first compound 0.03162 µM): 0.235
relative viability ([11]; first compound 0.1 µM): 0.25
relative viability ([11]; first compound 0.3162 µM): 0.258
relative viability ([11]; first compound 1 µM): 0.227
relative viability ([12]; first compound 0.01 µM): 0.926
relative viability ([12]; first compound 0.03162 µM): 1.05
relative viability ([12]; first compound 0.1 µM): 1.16
relative viability ([12]; first compound 0.3162 µM): 1.28
relative viability ([12]; first compound 1 µM): 1.04
relative viability ([13]; first compound 0.01 µM): 0.865
relative viability ([13]; first compound 0.03162 µM): 0.993
relative viability ([13]; first compound 0.1 µM): 1.2
relative viability ([13]; first compound 0.3162 µM): 0.969
relative viability ([13]; first compound 1 µM): 0.563
relative viability ([14]; first compound 0.03162 µM): 0.93
relative viability ([14]; first compound 0.1 µM): 1.07
relative viability ([14]; first compound 0.3162 µM): 0.725
relative viability ([14]; first compound 1 µM): 0.551
relative viability ([15]; first compound 0.01 µM): 0.518
relative viability ([15]; first compound 0.03162 µM): 0.456
relative viability ([15]; first compound 0.1 µM): 0.542
relative viability ([15]; first compound 0.3162 µM): 0.455
relative viability ([15]; first compound 1 µM): 0.354
relative viability ([16]; first compound 0.01 µM): 1.07
relative viability ([16]; first compound 0.03162 µM): 1.05
relative viability ([16]; first compound 0.1 µM): 1.26
relative viability ([16]; first compound 0.3162 µM): 1.28
relative viability ([16]; first compound 1 µM): 0.865
relative viability ([17]; first compound 0.01 µM): 0.903
relative viability ([17]; first compound 0.03162 µM): 0.789
relative viability ([17]; first compound 0.1 µM): 0.996
relative viability ([17]; first compound 0.3162 µM): 0.836
relative viability ([17]; first compound 1 µM): 0.676
relative viability ([18]; first compound 0.01 µM): 0.988
relative viability ([18]; first compound 0.03162 µM): 0.944
relative viability ([18]; first compound 0.1 µM): 1.06
relative viability ([18]; first compound 0.3162 µM): 1.18
relative viability ([18]; first compound 1 µM): 0.734
relative viability ([19]; first compound 0.01 µM): 0.946
relative viability ([19]; first compound 0.03162 µM): 0.941
relative viability ([19]; first compound 0.1 µM): 0.961
relative viability ([19]; first compound 0.3162 µM): 0.999
relative viability ([19]; first compound 1 µM): 0.859
relative viability ([20]; first compound 0.01 µM): 0.623
relative viability ([20]; first compound 0.1 µM): 1.03
relative viability ([20]; first compound 0.3162 µM): 0.562
relative viability ([20]; first compound 1 µM): 0.367

COc1nc(C)cnc1NS(=O)(=O)c1cccnc1-c1ccc(-c2nnco2)cc1 [Zibotentan] + CS(=O)(=O)CCNCc1ccc(-c2ccc3ncnc(Nc4ccc(OCc5cccc(F)c5)c(Cl)c4)c3c2)o1 [Lapatinib] (partner 2 µM)
relative viability ([1]; first compound 0.08 µM): 0.796
relative viability ([1]; first compound 0.253 µM): 0.837
relative viability ([1]; first compound 0.8 µM): 0.764
relative viability ([1]; first compound 2.53 µM): 0.95
relative viability ([2]; first compound 0.08 µM): 0.87
relative viability ([2]; first compound 0.253 µM): 0.4
relative viability ([2]; first compound 0.8 µM): 0.651
relative viability ([2]; first compound 2.53 µM): 0.846
relative viability ([3]; first compound 0.08 µM): 1.21
relative viability ([3]; first compound 0.253 µM): 0.849
relative viability ([3]; first compound 0.8 µM): 0.922
relative viability ([3]; first compound 2.53 µM): 0.798
relative viability ([4]; first compound 0.08 µM): 0.935
relative viability ([4]; first compound 0.253 µM): 0.366
relative viability ([4]; first compound 0.8 µM): 0.747
relative viability ([4]; first compound 2.53 µM): 0.854
relative viability ([5]; first compound 0.08 µM): 0.885
relative viability ([5]; first compound 0.253 µM): 0.809
relative viability ([5]; first compound 0.8 µM): 0.853
relative viability ([5]; first compound 2.53 µM): 0.927
relative viability ([6]; first compound 0.08 µM): 0.157
relative viability ([6]; first compound 0.253 µM): 0.191
relative viability ([6]; first compound 0.8 µM): 0.214
relative viability ([6]; first compound 2.53 µM): 0.223
relative viability ([7]; first compound 0.08 µM): 0.982
relative viability ([7]; first compound 0.253 µM): 0.894
relative viability ([7]; first compound 0.8 µM): 0.919
relative viability ([7]; first compound 2.53 µM): 0.869
relative viability ([8]; first compound 0.08 µM): 0.993
relative viability ([8]; first compound 0.253 µM): 0.535
relative viability ([8]; first compound 0.8 µM): 0.905
relative viability ([8]; first compound 2.53 µM): 0.958
relative viability ([9]; first compound 0.08 µM): 1.02
relative viability ([9]; first compound 0.253 µM): 1.01
relative viability ([9]; first compound 0.8 µM): 1.05
relative viability ([9]; first compound 2.53 µM): 0.949
relative viability ([10]; first compound 0.08 µM): 1.17
relative viability ([10]; first compound 0.253 µM): 0.955
relative viability ([10]; first compound 0.8 µM): 1.06
relative viability ([10]; first compound 2.53 µM): 1.09
relative viability ([11]; first compound 0.08 µM): 0.271
relative viability ([11]; first compound 0.253 µM): 0.255
relative viability ([11]; first compound 0.8 µM): 0.281
relative viability ([11]; first compound 2.53 µM): 0.239
relative viability ([12]; first compound 0.08 µM): 1.18
relative viability ([12]; first compound 0.253 µM): 0.84
relative viability ([12]; first compound 0.8 µM): 1.06
relative viability ([12]; first compound 2.53 µM): 1.09
relative viability ([13]; first compound 0.08 µM): 0.938
relative viability ([13]; first compound 0.253 µM): 0.838
relative viability ([13]; first compound 0.8 µM): 0.922
relative viability ([13]; first compound 2.53 µM): 1.06
relative viability ([14]; first compound 0.08 µM): 1.08
relative viability ([14]; first compound 0.253 µM): 0.883
relative viability ([14]; first compound 0.8 µM): 0.952
relative viability ([14]; first compound 2.53 µM): 1.08
relative viability ([15]; first compound 0.08 µM): 0.505
relative viability ([15]; first compound 0.253 µM): 0.453
relative viability ([15]; first compound 0.8 µM): 0.498
relative viability ([15]; first compound 2.53 µM): 0.509
relative viability ([16]; first compound 0.08 µM): 1.02
relative viability ([16]; first compound 0.253 µM): 1.01
relative viability ([16]; first compound 0.8 µM): 1.08
relative viability ([16]; first compound 2.53 µM): 1.04
relative viability ([17]; first compound 0.08 µM): 1.06
relative viability ([17]; first compound 0.253 µM): 0.7
relative viability ([17]; first compound 0.8 µM): 0.747
relative viability ([17]; first compound 2.53 µM): 0.762
relative viability ([18]; first compound 0.08 µM): 0.974
relative viability ([18]; first compound 0.253 µM): 0.655
relative viability ([18]; first compound 0.8 µM): 1
relative viability ([18]; first compound 2.53 µM): 0.904
relative viability ([19]; first compound 0.08 µM): 0.958
relative viability ([19]; first compound 0.253 µM): 0.805
relative viability ([19]; first compound 0.8 µM): 0.873
relative viability ([19]; first compound 2.53 µM): 0.858
relative viability ([20]; first compound 0.08 µM): 0.903
relative viability ([20]; first compound 0.253 µM): 0.645
relative viability ([20]; first compound 0.8 µM): 0.596
relative viability ([20]; first compound 2.53 µM): 0.938
